{C6NH2} = aminohexyl phosphate linker
Assays:
[1] = tested on: unmodified 20-mer ODN complement with the base sequence 5'-GTGACGAACATGGAGAACAT; experiment: Thermal denaturation studies (Tm of duplex with complementary ODN); assay type: binding; settings: equimolar ODN and 20-mer complement, 2 μM solutions in pH 7.2 PBS, A260, 15-85° C. at 0.5° C./min
Experimental: The ODN-peptide conjugates prepared from ODN1 were further characterized by thermal denaturation studies as described in EXAMPLE III. The dissociation of duplexes formed from equimolar concentrations of the ODN1-peptide conjugates and an unmodified 20-mer ODN target were examined. The changes in absorbance at 260 nm were measured as a function of temperature and the melting temperatures (Tm) were determined. […] Therefore, amino acid residue(s) from proteolysis of the linker are, generally speaking, expected to have little effect on the biological activity of the released ODN.
Thermal Denaturation Studies (ODN1-Peptides). Thermal dissociation curves were obtained by following changes in A260 of aqueous solutions containing equimolar amounts of the particular ODN1-peptide described above and an unmodified 20-mer ODN complement with the base sequence 5'-[…] Sequence ID No.: 14. The 5'-hexylamine modified 16-mer (ODN1) was used as a control in each run. ODNs were prepared as 2 μM solutions in pH 7.2 PBS. A Gilford System 2600 UV-VIS spectrophotometer equipped with a Gilford 2527 Thermoprogrammer was used. […] Absorbance vs. time and the first derivative data were recorded automatically. […] The Tm was determined using the derivative maxima: ODN1, Tm =62.8° C.; ODN1-PEP1, Tm =61.8° C.; ODN1-PEP2, Tm =59.0° C.; […]° C.

[2] = tested on: trypsin; experiment: Protease degradation studies (trypsin digestion, polyacrylamide gel electrophoresis); assay type: biochemical; settings: 2 μg ODN-peptide, Tris pH 9.0, EDTA, digesting 60 min, 20% denaturing polyacrylamide gel
Excerpt: The model ODN-peptide conjugates were further characterized by their susceptibility to proteolysis with trypsin. (For detail see EXAMPLE IV). As is known in the art, trypsin catalyzes the hydrolysis at the carboxyl side of lysine or arginine residues in the peptides. It was found in accordance with the present invention that trypsin had no effect on the ODN as shown by polyacrylamide gel electrophoresis in FIG. 6.
Protease Degradation Studies (ODN1-Peptides). The three ODN1-peptide conjugates (described in Table I) were characterized by treatment with trypsin. Solutions of 2 μg of the ODN-peptide in 7 μL of water were combined with 1 μL of 10x trypsin disruption solution, 1 μL of 100 mM Tris buffer (pH 9.0), and 1 μL of 100 mM EDTA. After digesting 60 min, the samples were loaded on 20% denaturing polyacrylamide gel. Electrophoresis indicated complete proteolysis of starting ODN1-peptide (see FIG. 6, lanes 1-6). Trypsin had no effect on an unmodified ODN1 control (lanes 8 and 9).

H2 N--(CH2)6 --O--PO2^- -5'O--CTCCATCTTCGTCACA (5' {C6NH2}, sugars by position and backbone not given here) [ODN1, 5'-hexylamine modified 16-mer ODN complementary to initiation codon region of Hepatitis B surface antigen mRNA]
Tm (melting temperature, derivative maxima) [1]: 62.8 °C | proteolysis by trypsin (electrophoresis) [2]: no effect

Reference: US5574142A, “Peptide linkers for improved oligonucleotide delivery” (MicroProbe Corporation, priority 1992, dated 1996)
